Counter-ions that a name gives are not always drawn.
Assays:
NHE3 = target: T1, NHE3 (Homo sapiens, UniProt P48764); assay: Determination of the NHE-inhibitory effect (recovery of intracellular pH after acidification, BCECF fluorescence); type: cell-based; conditions: pH recovery recorded for three minutes with NHE3; BCECF-loaded cells
T1 sequence (P48764 26-834): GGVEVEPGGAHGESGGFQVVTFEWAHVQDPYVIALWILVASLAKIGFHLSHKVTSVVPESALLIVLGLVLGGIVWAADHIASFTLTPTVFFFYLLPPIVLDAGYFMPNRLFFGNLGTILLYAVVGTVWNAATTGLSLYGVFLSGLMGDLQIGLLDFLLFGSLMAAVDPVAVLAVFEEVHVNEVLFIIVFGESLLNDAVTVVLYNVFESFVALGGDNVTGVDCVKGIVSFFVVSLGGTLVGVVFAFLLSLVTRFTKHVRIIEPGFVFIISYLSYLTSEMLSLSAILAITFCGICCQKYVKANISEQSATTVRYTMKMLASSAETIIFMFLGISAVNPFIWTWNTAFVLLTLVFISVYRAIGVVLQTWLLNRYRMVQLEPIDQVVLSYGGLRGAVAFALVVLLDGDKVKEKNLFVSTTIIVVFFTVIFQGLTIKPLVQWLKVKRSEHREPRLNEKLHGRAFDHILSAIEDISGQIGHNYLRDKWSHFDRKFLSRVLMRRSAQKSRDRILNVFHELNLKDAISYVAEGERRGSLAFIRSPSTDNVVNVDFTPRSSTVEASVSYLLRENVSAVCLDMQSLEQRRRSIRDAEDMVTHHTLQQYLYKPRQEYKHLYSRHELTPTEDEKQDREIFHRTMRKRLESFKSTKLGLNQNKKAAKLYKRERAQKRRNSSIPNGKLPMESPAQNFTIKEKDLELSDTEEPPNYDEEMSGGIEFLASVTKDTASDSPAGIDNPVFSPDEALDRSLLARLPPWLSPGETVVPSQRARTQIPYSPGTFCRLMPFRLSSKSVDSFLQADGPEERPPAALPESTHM
Method: Description of Assay: Determination of the NHE-Inhibitory Effect
In this assay, the recovery of the intracellular pH (pHj) after an acidification which occurs even under bicarbonate-free conditions with functional NHE was determined. To this end, the pHj was determined using the pH-sensitive fluorescent dye BCECF (Calbiochem, the precursor BCECF-AM was employed). The cells were initially loaded with BCECF. The BCECF fluorescence was determined in a ratio fluorescence spectrometer (Photon Technology International, South Brunswick, N.J., USA) with excitation wavelengths of 505 and 440 nm and an emission wavelength of 535 nm and converted into the pHj using calibration plots. The cells had been incubated in NH4Cl buffer (pH 7.4) for the BCECF loading (NH4Cl buffer: 115 mM NaCl, 20 mM NH4Cl, 5 mM KCl, 1 mM CaCl2, 1 mM MgSO4, 20 mM Hepes, 5 mM glucose, 1 mg/ml BSA; a pH of 7.4 was adjusted with 1 M NaOH). The intracellular acidification was induced by adding 975 μl of an NH4Cl-free buffer (see below) to 25 μl aliquots of the cells incubated in NH4Cl buffer. The subsequent rate of pH recovery was recorded for two minutes with NHE1, five minutes with NHE2 and three minutes with NHE3. To calculate the inhibitory power of the tested substances, the cells were initially investigated in buffers with which there was complete or absolutely no pH recovery. For complete pH recovery (100%), the cells were incubated in Na^+-containing buffer (133.8 mM NaCl, 4.7 mM KCl, 1.25 mM CaCl2, 1.25 mM MgCl2, 0.97 mM Na2HPO4, 0.23 mM NaH2PO4, 5 mM Hepes, 5 mM glucose, a pH of 7.0 was adjusted with 1 M NaOH). To determine the 0% value, the cells were incubated in an Na^+-free buffer (133.8 mM choline chloride, 4.7 mM KCl, 1.25 mM CaCl2, 1.25 mM MgCl2, 0.97 mM K2HPO4, 0.23 mM KH2PO4, 5 mM Hepes, 5 mM glucose, a pH of 7.0 was adjusted with 1 M NaOH). The substances to be tested were made up in the Na^+-containing buffer. The recovery of the intracellular pH at each tested concentration of a substance was expressed as a percentage of the maximum recovery. The IC50 of the respective substance for the individual NHE subtypes was calculated from the percentages of pH recovery using the Sigma Plot program.

SMILES	melting point [°C]	IC50 (NHE3) [µM]
NC1=NCC(c2ccc(N)cc2)c2cc(Cl)ccc21 (centres unmarked) (as salt: hydrochloride) [Example 1A, 1-Amino-4-(4-aminophenyl)-6-chloro-3,4-dihydroisoquinoline Hydrochloride]	278 to 284	
NC1=NCC(c2ccccc2N)c2cc(Cl)ccc21 (centres unmarked) [Example 2, 1-Amino-4-(2-aminophenyl)-6-chloro-3,4-dihydroisoquinoline Hydrochloride]		1.63

Further lines, results first:

melting point [°C]	IC50 (NHE3) [µM]	SMILES
	1.95	NC1=NCC(c2ccc(N)cc2)c2cc(Cl)ccc21 (centres unmarked) [Example 1A, 1-Amino-4-(4-aminophenyl)-6-chloro-3,4-dihydroisoquinoline Hydrochloride]
	8.24	NC1=NCC(c2ccc(N)cc2)c2ccccc21 (centres unmarked) [Example 1B, 1-amino-4-(4-aminophenyl)-3,4-dihydroisoquinoline Hydrochloride]
	4.93	CNC1=NCC(c2ccc(N)cc2)c2cc(Cl)ccc21 (centres unmarked) [Example 3, 4-(4-Aminophenyl)-6-chloro-1-methylamino-3,4-dihydroisoquinoline Hydrochloride]
